Experimental data as given in ChEMBL document CHEMBL4665659, “Utilizing comprehensive and mini-kinome panels to optimize the selectivity of quinoline inhibitors for cyclin G associated kinase (GAK)” (Bioorg Med Chem Lett, 2019).
Calls of active or inactive are those of the source. No cut-off for these calls is given here.

Tests used:
Homo sapiens = species: Homo sapiens; assay: Binding affinity to human ABL at 1 uM by Kinomescan method
[1] = target: T1, Activin receptor type-1 (Homo sapiens) (UniProt Q04771); assay: Inhibition of human wild type partial length ALK2 (C188 to C509 residues) expressed in bacterial expression system at 1 uM by Kinomescan method relative to control
T1 sequence (whole entry): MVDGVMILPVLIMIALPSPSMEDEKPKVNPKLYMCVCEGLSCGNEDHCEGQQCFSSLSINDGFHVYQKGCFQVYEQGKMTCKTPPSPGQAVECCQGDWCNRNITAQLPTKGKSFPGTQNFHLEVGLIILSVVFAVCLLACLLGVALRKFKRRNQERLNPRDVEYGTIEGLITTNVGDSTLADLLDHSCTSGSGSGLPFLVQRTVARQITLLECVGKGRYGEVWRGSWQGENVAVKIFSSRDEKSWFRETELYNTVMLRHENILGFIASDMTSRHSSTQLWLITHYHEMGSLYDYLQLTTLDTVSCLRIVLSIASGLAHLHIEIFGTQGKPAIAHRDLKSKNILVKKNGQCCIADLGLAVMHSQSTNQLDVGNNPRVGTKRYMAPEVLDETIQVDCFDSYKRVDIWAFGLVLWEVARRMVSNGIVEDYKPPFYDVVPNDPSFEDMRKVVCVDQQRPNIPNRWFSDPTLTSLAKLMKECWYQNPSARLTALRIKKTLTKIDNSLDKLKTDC

[2] = target: Bone morphogenetic protein receptor type-1B (Homo sapiens, UniProt O00238); assay: Inhibition of human ALK6 at 1 uM by Kinomescan method
Chain of Bone morphogenetic protein receptor type-1B (O00238 whole entry, the tested form may be a part): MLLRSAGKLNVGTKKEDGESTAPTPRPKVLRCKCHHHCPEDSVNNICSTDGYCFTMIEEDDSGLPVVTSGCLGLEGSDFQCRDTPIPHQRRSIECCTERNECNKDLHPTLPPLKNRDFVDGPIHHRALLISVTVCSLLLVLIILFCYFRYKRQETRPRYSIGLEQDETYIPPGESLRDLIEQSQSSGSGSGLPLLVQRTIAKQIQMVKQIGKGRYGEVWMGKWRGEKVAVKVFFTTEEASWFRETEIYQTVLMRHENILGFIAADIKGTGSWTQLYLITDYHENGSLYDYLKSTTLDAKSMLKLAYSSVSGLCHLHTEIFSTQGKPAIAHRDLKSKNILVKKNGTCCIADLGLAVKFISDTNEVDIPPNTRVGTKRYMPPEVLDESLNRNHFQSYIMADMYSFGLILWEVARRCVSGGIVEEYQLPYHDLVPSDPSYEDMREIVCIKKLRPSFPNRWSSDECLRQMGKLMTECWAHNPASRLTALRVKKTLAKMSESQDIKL

[3] = target: RAF proto-oncogene serine/threonine-protein kinase (Homo sapiens) (UniProt P04049); assay: Inhibition of human wild type partial length C-Raf (I330 to T640 residues) expressed in bacterial expression system at 1 uM by Kinomescan method relative to control
Chain of RAF proto-oncogene serine/threonine-protein kinase (Homo sapiens) (P04049 whole entry, the tested form may be a part): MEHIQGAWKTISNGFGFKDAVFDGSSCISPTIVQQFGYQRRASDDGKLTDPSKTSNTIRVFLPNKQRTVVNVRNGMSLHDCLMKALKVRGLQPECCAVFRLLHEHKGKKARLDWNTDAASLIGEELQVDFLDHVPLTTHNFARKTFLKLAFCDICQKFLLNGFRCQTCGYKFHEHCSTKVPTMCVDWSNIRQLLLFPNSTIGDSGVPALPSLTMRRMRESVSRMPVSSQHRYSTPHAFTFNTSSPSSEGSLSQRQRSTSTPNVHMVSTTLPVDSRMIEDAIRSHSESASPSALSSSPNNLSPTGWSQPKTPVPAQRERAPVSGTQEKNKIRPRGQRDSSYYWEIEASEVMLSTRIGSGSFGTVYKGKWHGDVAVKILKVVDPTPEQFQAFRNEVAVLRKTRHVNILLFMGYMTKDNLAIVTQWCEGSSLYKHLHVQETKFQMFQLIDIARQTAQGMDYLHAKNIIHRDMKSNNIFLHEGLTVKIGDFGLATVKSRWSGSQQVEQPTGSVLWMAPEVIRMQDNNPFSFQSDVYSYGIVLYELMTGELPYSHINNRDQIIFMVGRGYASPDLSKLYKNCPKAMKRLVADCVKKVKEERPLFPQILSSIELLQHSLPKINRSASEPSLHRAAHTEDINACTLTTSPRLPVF

[4] = target: Epidermal growth factor receptor (Homo sapiens) (UniProt P00533); assay: Inhibition of human wild type partial length EGFR (R669 to V1011 residues) expressed in bacterial expression system at 1 uM by Kinomescan method
Chain of Epidermal growth factor receptor (Homo sapiens) (P00533 whole entry, the tested form may be a part): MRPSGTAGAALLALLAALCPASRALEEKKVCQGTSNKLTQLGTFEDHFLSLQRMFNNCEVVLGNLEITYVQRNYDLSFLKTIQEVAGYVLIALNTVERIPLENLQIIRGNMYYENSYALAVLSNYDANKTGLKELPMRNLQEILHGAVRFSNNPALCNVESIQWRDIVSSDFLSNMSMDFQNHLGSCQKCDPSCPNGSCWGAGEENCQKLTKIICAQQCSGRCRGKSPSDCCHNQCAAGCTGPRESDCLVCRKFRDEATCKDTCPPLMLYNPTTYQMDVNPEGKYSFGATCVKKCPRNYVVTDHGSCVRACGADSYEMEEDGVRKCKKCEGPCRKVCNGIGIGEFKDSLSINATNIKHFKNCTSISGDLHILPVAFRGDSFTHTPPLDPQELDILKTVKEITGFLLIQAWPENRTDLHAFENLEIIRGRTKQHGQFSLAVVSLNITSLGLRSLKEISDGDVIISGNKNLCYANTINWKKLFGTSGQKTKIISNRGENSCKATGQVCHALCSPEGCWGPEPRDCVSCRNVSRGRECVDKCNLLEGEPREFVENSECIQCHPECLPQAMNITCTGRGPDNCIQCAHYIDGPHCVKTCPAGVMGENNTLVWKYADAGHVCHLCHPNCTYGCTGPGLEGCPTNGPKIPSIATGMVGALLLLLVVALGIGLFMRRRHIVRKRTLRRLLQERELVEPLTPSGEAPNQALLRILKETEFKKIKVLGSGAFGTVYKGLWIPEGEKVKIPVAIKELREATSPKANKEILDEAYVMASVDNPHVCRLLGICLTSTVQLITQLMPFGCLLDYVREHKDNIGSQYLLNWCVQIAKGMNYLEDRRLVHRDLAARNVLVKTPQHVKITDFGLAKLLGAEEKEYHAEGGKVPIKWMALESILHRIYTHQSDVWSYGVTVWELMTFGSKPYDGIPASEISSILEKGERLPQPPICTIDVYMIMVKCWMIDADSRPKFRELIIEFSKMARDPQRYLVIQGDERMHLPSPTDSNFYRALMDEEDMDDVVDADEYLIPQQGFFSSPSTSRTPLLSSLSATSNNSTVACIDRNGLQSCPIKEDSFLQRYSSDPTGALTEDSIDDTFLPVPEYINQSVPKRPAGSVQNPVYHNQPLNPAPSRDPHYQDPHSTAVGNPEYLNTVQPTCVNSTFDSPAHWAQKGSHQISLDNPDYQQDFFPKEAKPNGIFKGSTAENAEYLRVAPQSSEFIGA

[5] = target: T2, Ephrin type-A receptor 1 (Homo sapiens) (UniProt P21709); assay: Inhibition of human wild type partial length EphA1 (V588 to I913 residues) expressed in bacterial expression system at 1 uM by Kinomescan method
T2 sequence (whole entry): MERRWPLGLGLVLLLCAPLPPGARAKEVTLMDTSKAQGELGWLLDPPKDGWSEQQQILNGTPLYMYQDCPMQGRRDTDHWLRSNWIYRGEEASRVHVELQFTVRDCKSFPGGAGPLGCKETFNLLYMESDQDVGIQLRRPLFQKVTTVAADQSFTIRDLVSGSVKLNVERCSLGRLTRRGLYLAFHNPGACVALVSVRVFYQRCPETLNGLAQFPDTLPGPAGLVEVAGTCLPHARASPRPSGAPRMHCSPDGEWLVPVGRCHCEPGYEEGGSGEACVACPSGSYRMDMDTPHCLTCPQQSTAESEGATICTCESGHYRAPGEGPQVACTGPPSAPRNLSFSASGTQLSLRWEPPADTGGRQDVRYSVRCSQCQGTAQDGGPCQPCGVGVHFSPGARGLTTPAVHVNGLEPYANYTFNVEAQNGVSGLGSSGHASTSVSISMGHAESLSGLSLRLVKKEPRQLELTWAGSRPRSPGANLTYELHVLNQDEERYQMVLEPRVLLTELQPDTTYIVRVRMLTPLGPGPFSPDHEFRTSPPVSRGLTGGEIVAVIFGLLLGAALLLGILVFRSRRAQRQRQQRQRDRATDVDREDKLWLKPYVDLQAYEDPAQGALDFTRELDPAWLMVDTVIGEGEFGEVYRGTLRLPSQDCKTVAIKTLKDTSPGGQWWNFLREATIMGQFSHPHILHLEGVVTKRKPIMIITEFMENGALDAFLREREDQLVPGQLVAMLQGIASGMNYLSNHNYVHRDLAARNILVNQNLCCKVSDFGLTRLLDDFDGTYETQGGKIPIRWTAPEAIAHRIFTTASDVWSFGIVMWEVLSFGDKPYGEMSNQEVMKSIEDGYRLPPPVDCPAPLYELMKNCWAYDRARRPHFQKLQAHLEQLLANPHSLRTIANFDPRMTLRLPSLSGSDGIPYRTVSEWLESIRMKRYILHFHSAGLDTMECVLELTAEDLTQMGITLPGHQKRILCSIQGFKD

[6] = target: T3, Ephrin type-A receptor 8 (Homo sapiens) (UniProt P29322); assay: Inhibition of human wild type partial length EphA8 (Q608 to C920 residues) expressed in bacterial expression system at 1 uM by Kinomescan method
T3 sequence (whole entry): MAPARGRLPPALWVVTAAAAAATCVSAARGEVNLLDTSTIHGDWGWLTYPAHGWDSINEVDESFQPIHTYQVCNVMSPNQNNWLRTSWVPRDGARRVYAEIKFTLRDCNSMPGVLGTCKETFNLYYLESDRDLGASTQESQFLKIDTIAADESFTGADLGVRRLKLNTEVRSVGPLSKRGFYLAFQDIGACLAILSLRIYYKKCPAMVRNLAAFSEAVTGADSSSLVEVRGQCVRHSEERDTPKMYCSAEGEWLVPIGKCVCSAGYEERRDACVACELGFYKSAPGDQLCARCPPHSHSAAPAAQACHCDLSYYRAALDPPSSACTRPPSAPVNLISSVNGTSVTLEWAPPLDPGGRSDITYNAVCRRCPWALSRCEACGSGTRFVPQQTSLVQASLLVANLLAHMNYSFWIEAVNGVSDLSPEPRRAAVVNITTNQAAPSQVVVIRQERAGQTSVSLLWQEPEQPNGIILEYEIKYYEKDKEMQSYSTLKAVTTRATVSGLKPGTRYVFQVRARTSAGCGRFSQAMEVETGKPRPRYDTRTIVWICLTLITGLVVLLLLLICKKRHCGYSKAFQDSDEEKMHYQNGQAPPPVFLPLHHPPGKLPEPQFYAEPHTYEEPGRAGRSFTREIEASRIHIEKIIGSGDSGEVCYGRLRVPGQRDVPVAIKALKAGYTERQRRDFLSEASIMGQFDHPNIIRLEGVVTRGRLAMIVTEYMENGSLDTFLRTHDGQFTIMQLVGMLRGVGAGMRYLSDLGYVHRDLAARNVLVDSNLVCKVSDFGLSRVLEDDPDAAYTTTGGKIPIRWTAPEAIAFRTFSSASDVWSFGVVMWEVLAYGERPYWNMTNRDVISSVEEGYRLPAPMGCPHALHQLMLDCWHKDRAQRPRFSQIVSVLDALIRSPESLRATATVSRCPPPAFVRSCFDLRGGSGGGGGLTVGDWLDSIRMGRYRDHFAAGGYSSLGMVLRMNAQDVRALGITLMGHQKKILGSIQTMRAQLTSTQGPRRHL

[7] = target: Tyrosine-protein kinase Fyn (Homo sapiens) (UniProt P06241); assay: Inhibition of human wild type partial length Fyn (T243 to L534 residues) expressed in bacterial expression system at 1 uM by Kinomescan method
Chain of Tyrosine-protein kinase Fyn (Homo sapiens) (P06241 2-537 limits assumed): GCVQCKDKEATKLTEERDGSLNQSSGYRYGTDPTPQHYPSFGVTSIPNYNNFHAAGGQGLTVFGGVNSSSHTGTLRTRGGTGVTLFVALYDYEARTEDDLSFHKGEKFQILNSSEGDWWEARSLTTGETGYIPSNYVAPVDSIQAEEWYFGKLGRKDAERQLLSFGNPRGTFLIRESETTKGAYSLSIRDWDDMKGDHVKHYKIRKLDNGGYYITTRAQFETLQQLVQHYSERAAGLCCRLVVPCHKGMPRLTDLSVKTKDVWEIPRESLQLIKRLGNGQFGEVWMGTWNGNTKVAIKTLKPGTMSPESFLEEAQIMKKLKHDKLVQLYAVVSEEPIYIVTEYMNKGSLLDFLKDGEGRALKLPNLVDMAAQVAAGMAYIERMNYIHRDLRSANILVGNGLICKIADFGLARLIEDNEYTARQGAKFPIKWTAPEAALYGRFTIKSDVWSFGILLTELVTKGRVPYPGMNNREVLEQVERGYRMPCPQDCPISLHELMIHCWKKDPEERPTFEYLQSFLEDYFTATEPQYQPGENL

| Activity (Homo sapiens) | inhibition [1] [%] | inhibition [2] | inhibition [3] [%] | inhibition [4] | inhibition [5] | inhibition [6] | inhibition [7] | Structure (SMILES) |
| --- | --- | --- | --- | --- | --- | --- | --- | --- |
| Active | 80 | Active | 70 | inactive | Active | Active | Active | COc1cc(Nc2ccnc3cc(Br)ccc23)cc(OC)c1OC |
| Active | 80 | Active | 70 | inactive | Active | Active | Active | COc1cc(Nc2ccnc3cc(Cl)ccc23)cc(OC)c1OC |
| Active | 80 | Active | 70 | inactive | Active | Active | Active | COc1cc(Nc2ccnc3cc(I)ccc23)cc(OC)c1OC |

The next lines start with the compound.

| Structure (SMILES) | Activity (Homo sapiens) | inhibition [1] [%] | inhibition [2] | inhibition [3] [%] | inhibition [4] | inhibition [5] | inhibition [6] | inhibition [7] |
| --- | --- | --- | --- | --- | --- | --- | --- | --- |
| COc1cc(Nc2ccnc3cc(C(F)(F)F)ccc23)cc(OC)c1OC | Active | 80 | Active | 70 | inactive | Active | Active | Active |
| COc1cc(Nc2ccnc3cc(C#N)ccc23)cc(OC)c1OC | Active | 80 | Active | 70 | inactive | Active | Active | Active |
